Active and inactive are the calls of the source. The rule behind the calls is not given here.
Key:
[1] = test system: Mus musculus; assay: Inhibition of IgE/Ag-mediated immediate hypersensitivity reaction in BALB/c mouse assessed as change in the level of skin extravasation at 0 to 4 mg/kg, po administered 1 hr prior to Ag challenge; type: functional, organism-based; settings: dose 0-4 mg/kg
[2] = test system: RBL-2H3; assay: Inhibition of DNP-HAS-stimulated mast cell degranulation in rat RBL-2H3 cells assessed as reduction in beta-hexosaminidase release at 1 uM incubated for 3 hrs; type: functional, cell-based
[3] = test system: RBL-2H3; assay: Inhibition of DNP-HAS-stimulated mast cell degranulation in rat RBL-2H3 cells assessed as reduction in beta-hexosaminidase release at 1 to 25 uM incubated for 3 hrs followed by DNP-HAS stimulation for 1 hr; type: functional, cell-based; settings: dose 1-25 µM
[4] = test system: RBL-2H3; assay: Inhibition of mast cell degranulation in rat RBL-2H3 cells assessed as induction of ASM activation pre-treated with anti-67LR antibody for 3 hrs followed by compound treatment at 25 uM for 3 hrs; type: functional, cell-based
[5] = test system: RBL-2H3; assay: Inhibition of DNP-HAS-stimulated mast cell degranulation in rat RBL-2H3 cells assessed as reduction in beta-hexosaminidase release at 0.5 uM; type: functional, cell-based
[6] = test system: RBL-2H3; assay: Inhibition of DNP-HAS-stimulated mast cell degranulation in rat RBL-2H3 cells assessed as reduction in beta-hexosaminidase release at 0.5 uM in presence of 0.1 uM eriodictyol; type: functional, cell-based
[7] = test system: RBL-2H3; assay: Inhibition of mast cell degranulation in rat RBL-2H3 cells assessed as reduction in beta-hexosaminidase release pre-treated with 5 uM ASM-specific inhibitor desipramine for 3 hrs followed by compound treatment at 25 uM for 3 hrs; type: functional, cell-based
[8] = test system: RBL-2H3; assay: Inhibition of DNP-HAS-stimulated mast cell degranulation in rat RBL-2H3 cells assessed as induction of ASM activation at 0.5 uM in presence of 0.1 uM eriodictyol; type: functional, cell-based
[9] = test system: RBL-2H3; assay: Inhibition of DNP-HAS-stimulated mast cell degranulation in rat RBL-2H3 cells assessed as reduction in beta-hexosaminidase release pre-treated with 5 uM sGC inhibitor NS2028 for 1 hr followed by compound treatment at 25 uM for 3 hrs; type: functional, cell-based
[10] = test system: RBL-2H3; assay: Inhibition of mast cell degranulation in rat RBL-2H3 cells assessed as induction of ASM activation at 1 to 25 uM incubated for 3 hrs measured by TLC analyses; type: functional, cell-based; settings: dose 1-25 µM
[11] = test system: RBL-2H3; assay: Inhibition of DNP-HAS-stimulated mast cell degranulation in rat RBL-2H3 cells assessed as induction of ASM activation at 0.5 uM; type: functional, cell-based
[12] = test system: RBL-2H3; assay: Inhibition of DNP-HAS-stimulated mast cell degranulation in rat RBL-2H3 cells assessed as induction of ASM activation at 0.1 uM; type: functional, cell-based
[13] = test system: RBL-2H3; assay: Inhibition of DNP-HAS-stimulated mast cell degranulation in rat RBL-2H3 cells assessed as reduction in beta-hexosaminidase release at 0.01 to 1 uM; type: functional, cell-based; settings: dose 0.01-1 µM
[14] = test system: RBL-2H3; assay: Inhibition of DNP-HAS-stimulated mast cell degranulation in rat RBL-2H3 cells assessed as reduction in beta-hexosaminidase release at 0.1 uM; type: functional, cell-based

`O=C1C[C@@H](c2ccc(O)c(O)c2)Oc2cc(O[C@@H]3O[C@H](CO)[C@@H](O)[C@H](O)[C@H]3O)cc(O)c21` was tested, and the inhibition [1] was “inactive”.

In the case of `Nc1nc(-c2nn(Cc3ccccc3F)c3ncccc23)ncc1C1CC1`, the inhibition [2] was “Active”.

`COc1cc(C(=O)O[C@@H]2Cc3c(O)cc(O)cc3O[C@@H]2c2cc(O)c(O)c(O)c2)cc(O)c1O` was tested, and the inhibition [3] was “Active”, the inhibition [4] was “inactive” and the inhibition [5] was “inactive”. For the same compound, the inhibition [6] was “Active”, the inhibition [7] was “inactive” and the inhibition [8] was “Active”. For the same compound, the inhibition [9] was “inactive”, the inhibition [10] was “Active” and the inhibition [11] was “inactive”.

With `O=C1C[C@@H](c2ccc(O)c(O)c2)Oc2cc(O)cc(O)c21` the inhibition [12] was “inactive”, the inhibition [13] was “inactive” and the inhibition [14] was “inactive”.
